Measured values from ChEMBL document CHEMBL5465560, “Selectivity Literature for EUbOPEN Chemogenomic Library” (2024).

Key:
[1] = target: T1, Inhibitor of nuclear factor kappa-B kinase subunit epsilon (Homo sapiens) (UniProt Q14164); assay: Selectivity interaction (KinomeScan (DiscoverX)) EUB0000229b IKBKE; settings: at 10 µM
T1 sequence (whole entry): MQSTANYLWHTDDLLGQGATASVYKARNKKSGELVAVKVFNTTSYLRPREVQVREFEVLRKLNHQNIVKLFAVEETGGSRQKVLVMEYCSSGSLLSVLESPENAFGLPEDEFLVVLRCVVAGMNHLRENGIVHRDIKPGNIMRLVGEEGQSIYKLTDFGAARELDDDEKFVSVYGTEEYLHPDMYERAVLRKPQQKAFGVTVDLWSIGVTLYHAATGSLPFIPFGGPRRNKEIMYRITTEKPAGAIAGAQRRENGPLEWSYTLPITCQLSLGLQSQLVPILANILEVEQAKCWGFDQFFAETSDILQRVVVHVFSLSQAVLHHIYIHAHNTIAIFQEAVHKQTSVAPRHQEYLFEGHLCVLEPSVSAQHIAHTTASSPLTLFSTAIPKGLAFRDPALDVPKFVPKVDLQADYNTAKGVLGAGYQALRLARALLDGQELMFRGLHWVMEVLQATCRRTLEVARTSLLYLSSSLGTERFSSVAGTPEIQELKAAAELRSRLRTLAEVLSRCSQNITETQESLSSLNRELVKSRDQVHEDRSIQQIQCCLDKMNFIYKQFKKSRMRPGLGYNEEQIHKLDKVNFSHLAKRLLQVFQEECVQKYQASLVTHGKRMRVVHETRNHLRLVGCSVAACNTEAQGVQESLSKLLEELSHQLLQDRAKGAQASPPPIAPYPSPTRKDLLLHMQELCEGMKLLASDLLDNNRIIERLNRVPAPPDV

[2] = target: T2, Phosphatidylinositol 4,5-bisphosphate 3-kinase catalytic subunit delta isoform (Homo sapiens) (UniProt O00329); assay: Selectivity interaction (KinomeScan (DiscoverX)) EUB0000655a PIK3CD; settings: at 10 µM
T2 sequence (whole entry): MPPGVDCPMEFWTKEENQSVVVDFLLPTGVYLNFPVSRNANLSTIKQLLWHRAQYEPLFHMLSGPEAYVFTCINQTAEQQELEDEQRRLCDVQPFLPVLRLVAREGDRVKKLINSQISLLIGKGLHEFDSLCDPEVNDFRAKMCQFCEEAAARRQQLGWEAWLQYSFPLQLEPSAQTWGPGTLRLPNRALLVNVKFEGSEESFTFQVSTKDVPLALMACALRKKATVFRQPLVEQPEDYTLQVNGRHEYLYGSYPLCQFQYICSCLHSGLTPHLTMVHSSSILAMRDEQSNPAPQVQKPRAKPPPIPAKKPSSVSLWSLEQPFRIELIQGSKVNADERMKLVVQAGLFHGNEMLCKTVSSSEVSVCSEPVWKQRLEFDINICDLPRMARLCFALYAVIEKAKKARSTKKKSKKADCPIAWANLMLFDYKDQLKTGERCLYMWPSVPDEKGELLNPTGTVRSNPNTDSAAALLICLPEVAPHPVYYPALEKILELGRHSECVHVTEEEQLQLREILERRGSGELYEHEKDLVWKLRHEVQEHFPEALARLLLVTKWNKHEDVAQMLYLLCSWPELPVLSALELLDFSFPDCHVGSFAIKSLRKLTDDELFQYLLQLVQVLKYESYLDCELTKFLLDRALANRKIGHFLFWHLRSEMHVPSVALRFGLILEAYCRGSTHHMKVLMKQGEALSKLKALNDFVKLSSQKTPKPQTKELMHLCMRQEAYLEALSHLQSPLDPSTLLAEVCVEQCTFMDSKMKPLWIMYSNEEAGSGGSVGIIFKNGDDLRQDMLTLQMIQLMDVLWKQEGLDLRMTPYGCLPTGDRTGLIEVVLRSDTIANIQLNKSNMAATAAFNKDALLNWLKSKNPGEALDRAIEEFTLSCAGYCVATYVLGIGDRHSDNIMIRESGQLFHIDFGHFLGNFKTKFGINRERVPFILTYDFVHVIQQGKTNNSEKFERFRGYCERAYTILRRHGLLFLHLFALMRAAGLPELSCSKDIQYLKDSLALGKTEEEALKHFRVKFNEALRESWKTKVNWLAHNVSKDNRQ

[3] = target: Serine/threonine-protein kinase PAK 3 (Homo sapiens) (UniProt O75914); assay: Selectivity interaction (Kinase panel (Z-LYTE Assay)) EUB0001632a PAK3; settings: at 10 µM
Chain of Serine/threonine-protein kinase PAK 3 (Homo sapiens) (O75914 whole entry, looked up): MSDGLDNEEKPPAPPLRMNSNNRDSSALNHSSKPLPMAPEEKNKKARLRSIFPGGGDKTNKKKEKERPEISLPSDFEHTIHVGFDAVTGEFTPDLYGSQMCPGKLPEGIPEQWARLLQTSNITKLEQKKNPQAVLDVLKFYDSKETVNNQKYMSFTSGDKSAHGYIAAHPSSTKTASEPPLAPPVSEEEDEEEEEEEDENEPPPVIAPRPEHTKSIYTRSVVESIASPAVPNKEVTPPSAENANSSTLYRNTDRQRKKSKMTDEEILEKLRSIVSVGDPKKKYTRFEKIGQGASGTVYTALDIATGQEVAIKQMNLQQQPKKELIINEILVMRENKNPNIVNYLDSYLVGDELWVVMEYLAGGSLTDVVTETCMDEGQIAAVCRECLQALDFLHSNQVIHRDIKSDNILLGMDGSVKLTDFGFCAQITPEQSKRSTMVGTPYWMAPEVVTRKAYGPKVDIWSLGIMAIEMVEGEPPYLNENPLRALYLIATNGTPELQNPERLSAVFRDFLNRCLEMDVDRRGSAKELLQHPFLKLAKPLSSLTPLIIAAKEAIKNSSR

[4] = target: T3, Testis-specific serine/threonine-protein kinase 1 (Homo sapiens) (UniProt Q9BXA7); assay: Selectivity interaction (KinomeScan (DiscoverX)) EUB0000695a TSSK1B; settings: at 100 nM
T3 sequence (whole entry): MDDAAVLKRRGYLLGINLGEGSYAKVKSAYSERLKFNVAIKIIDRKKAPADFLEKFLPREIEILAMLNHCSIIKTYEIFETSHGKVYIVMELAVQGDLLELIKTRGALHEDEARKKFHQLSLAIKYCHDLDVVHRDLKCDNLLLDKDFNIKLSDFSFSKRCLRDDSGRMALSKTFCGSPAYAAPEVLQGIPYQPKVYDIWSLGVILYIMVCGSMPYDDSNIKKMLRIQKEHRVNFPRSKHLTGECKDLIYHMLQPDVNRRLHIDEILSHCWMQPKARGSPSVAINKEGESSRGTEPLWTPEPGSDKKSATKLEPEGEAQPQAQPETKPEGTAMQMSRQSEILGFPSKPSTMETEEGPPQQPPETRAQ

For `COc1cc(N(C)c2ccnc3ccc(C(F)(F)F)cc23)cc(OC)c1OC`, the % binding [1] was 84%.

In the case of `CN(C)CCOc1ccc(-c2nc(-c3ccncc3)c(-c3ccc4c(c3)CC/C4=N\O)[nH]2)cc1`, the % of control [2] is reported as 79%.

`Cn1cc(-n2cnc3c(NCc4nc5cc(Cl)c(Cl)cc5[nH]4)nc(N4CCOCC4)nc32)cn1` was tested, and the % of control [3] was -20.7%.

`Cc1cc(F)c(C(=O)Nc2cccc(-c3nncn3C(C)C)n2)cc1-n1cnc(C2CC2)c1` gave a % of control [4] of 100%.
